ChEMBL document CHEMBL4665852, “Hydroxylated Ethacrylic and Tiglic Acid Derivatives from the Stems and Branches of Enkianthus chinensis and Their Potential Anti-inflammatory Activities” (J Nat Prod, 2020)

Assays:
Peritoneal macrophage [1] = assay: Cytotoxicity against C57BL/6J mouse Peritoneal macrophages assessed as reduction in cell growth incubated for 1 hr; type: cell-based
Peritoneal macrophage [2] = assay: Antiinflammatory activity in C57BL/6J mouse peritoneal macrophages assessed as inhibition of LPS-induced NO production preincubated for 1 hrs followed by LPS-stimulation and measured after 24 hrs by Griess reagent-based assay relative to control; type: functional, cell-based
Peritoneal macrophage [3] = assay: Antiinflammatory activity in C57BL/6J mouse peritoneal macrophages assessed as inhibition of LPS-induced NO production at 10 uM preincubated for 1 hrs followed by LPS-stimulation and measured after 24 hrs by Griess reagent-based assay relative to control; type: functional; conditions: time 25 hrs

| IC50 (Peritoneal macrophage [2]) [nM] | SMILES | Activity (Peritoneal macrophage [1]) | inhibition at 10 µM (Peritoneal macrophage [3]) [%] |
| --- | --- | --- | --- |
| 2900 | CC[C@](O)(C(=O)OC/C(=C\CO)C(=O)OC)[C@@H](C)O | Non-Toxic | 64.3 |
| 1200 | C/C=C(\CO)C(=O)OC/C(=C\CO)C(=O)OC | Non-Toxic | 84.9 |
